Experimental data reported in publication PMC11336009 (GeroScience, 2024).
Where two headings read alike, the source gives them in different places.

Assays:
[1] = Rat pharmacokinetic study: plasma and brain levels after single oral dose; format: in vivo; settings: male, Sprague-Dawley; for concentration at 105 min: po, 10 mg/kg, mean ± SEM
Protocol: A blood sample was obtained and the plasma was separated (10,000 G, 60 s, 4 °C) and frozen to -80 °C. The vasculature was immediately cleared with physiological saline, and a section through the right cerebral hemisphere was obtained and flash frozen to -80 °C.

[2] = system: 6-OHDA unilateral medial forebrain bundle lesioned rat; experiment: Methamphetamine-induced rotation in unilateral 6-OHDA lesioned rats; format: in vivo; settings: for Meth-induced ipsilateral rotation vs vehicle: early treatment 10 mg/kg daily p.o. from 7 days before lesioning, meth 2.5 mg/kg s.c. on days 20 and 30
[3] = system: 6-OHDA unilateral medial forebrain bundle lesioned rat; experiment: BrdU immunoreactivity (neurogenesis marker) in SVZ and striatum of 6-OHDA lesioned rats; format: in vivo; settings: delayed treatment 30 mg/kg daily p.o.; BrdU 50 mg/kg i.p. day 8 to 20; day 21
Protocol: Gliptin treatment was initiated either prior to or after 6-OHDA lesioning (early and delayed treatment, respectively) as follows. […]. An estimated dose for a 250-g rat under this treatment was 10 mg/kg/day. […]. An estimated, clinically relevant, dose for a 250 g rat under this treatment was thus 30 mg/kg/day. Specifically for drug admixture into diet, drug was solubilized in 100% ETOH that was then added to the 16.2 g of food chow. Thereafter, the ETOH was evaporated off. […] Animals were weighed twice weekly and the amount of drug added to the chow was modified accordingly to maintain the daily required dose. […]. […] Specifically, the 10 mg/kg oral daily drug dose in our rat studies is equivalent to the routine human daily oral dose (100 mg in a 65 kg human) of these gliptins used in T2DM, and the 30 mg/kg rat dose is equivalent to a threefold higher dose that is well-tolerated in humans.
Following the exact same protocol described in Yin et al., 2012 [34] and Harvey et al. 2004 [36], anesthetized rats were subjected to a 6-OHDA unilateral medial forebrain bundle lesion. Briefly, 6-OHDA (2.27 µg/µL × 5 µL in 0.9% NaCl containing 0.2 mg/ml ascorbic acid) was unilaterally injected into the medial forebrain bundle (-4.4 mm AP, 1.2 mm ML relative to bregma and 8.4 mm below skull) over 4 min through a syringe pump (Micro 4, WPI, Sarasota, FL), as approved under National Health Research Institutes, Taiwan, Protocol # 102,068-A; 102,102-A. Following this procedure, all animals were monitored daily for adverse signs of health for 1 week (in line with the approved protocols).
BrdU (Sigma-Aldrich, St. Louis, MO) was injected parenterally (i.p.) from day 8 to day 20 after 6-OHDA lesioning at the dose of 50 mg/kg/day as a marker of neurogenesis. Animals were euthanized for immunostaining on day 21.
BrdU and TH localization was determined by immunohistochemistry. Serial sections of the entire brain were cut at 30 μm thickness by cryostat. One series from every sixth section was stained for TH. To control for staining variability, specimens from all experimental groups were included in every batch and reacted together in a net well tray under the same conditions. Sections were rinsed in 0.1 M phosphate buffer (PB), blocked with 4% bovine serum albumin (BSA) and 0.3% Triton x-100 in 0.1 M PB. […]
TH immunoreactivity and BrdU cell number in striatum were averaged from 3 brain sections with visible anterior commissure in each animal. TH immunoreactivity in SNc was measured every 6th Sect. […] Nigral volume was analyzed using Cavalieri's method.

[4] = system: GLP-1 and GIP; experiment: Active GLP-1 and GIP measurement in rat plasma and CSF (ELISA); format: in vivo; settings: 30 mg/kg daily p.o. day 7 to 45, day 45
Protocol: Plasma was obtained from whole blood samples at the time of euthanasia (centrifugation 10,000xG 60 s at 4 °C), and CSF was obtained from the cisterna magna. Samples were evaluated by ELISA using kits from IBL (Immuno-Biological Laboratories, Inc.) or from Millipore, following their protocols.

[5] = system: TNF-α, IL-6, Iba-1 and GFAP; experiment: Neuroinflammatory measures in brain (TNF-α, IL-6 ELISA; Iba-1, GFAP Western blot); format: in vivo, rat; settings: 30 mg/kg daily p.o. day 7 to 45; day 45
Protocol: To quantify rat brain cytokine levels, brain tissues were homogenized in TPER (Tissue Protein Extraction Reagent) (ThermoFisher Scientific) using a Biomasher Homogenizer. Inhibitors of phosphatase and protease were added into the TPER to prevent protein degradation. Tissues were then sonicated for 10 pulses and centrifuged at 10,000 g for 10 min at 4 °C. The supernatant was used to measure brain cytokine levels using rat TNF-α ELISA kits from e-Bioscience (San Diego, CA, USA) and rat IL-6 ELISA kits from Biolegend (San Diego, CA, USA). The final results were normalized to protein content, as measured by BCA (bicinchoninic acid) assay. Brain tissue Iba-1 and GFAP levels were quantified by Western blot (Iba-1 and GFAP antibodies Santa Cruz Biotechnology, Inc.) and used in 1:100 dilution).

[6] = Body weight of 6-OHDA lesioned rats under chronic gliptin treatment; format: in vivo, rat; settings: 12 mg/kg daily from day 7 after lesioning, one day before and 28 days after lesioning
Protocol: Gliptin treatment was initiated either prior to or after 6-OHDA lesioning (early and delayed treatment, respectively) as follows. […] Specifically for drug admixture into diet, drug was solubilized in 100% ETOH that was then added to the 16.2 g of food chow. Thereafter, the ETOH was evaporated off. […] Animals were weighed twice weekly and the amount of drug added to the chow was modified accordingly to maintain the daily required dose. […] Specifically, the 10 mg/kg oral daily drug dose in our rat studies is equivalent to the routine human daily oral dose (100 mg in a 65 kg human) of these gliptins used in T2DM, and the 30 mg/kg rat dose is equivalent to a threefold higher dose that is well-tolerated in humans.

[7] = system: P-glycoprotein; settings: at the level of the kidney; cited from earlier work
[8] = delayed treatment 30 mg/kg daily p.o. from day 7 to 45, rotation on days 20, 30 and 40

Structure (SMILES)	Meth-induced rotation vs vehicle [2, 8]	Meth-induced ipsilateral rotation vs vehicle [2]	BrdU labeling in the SVZ vs vehicle [3]	BrdU labeling in the lesioned striatum vs vehicle [3]	CSF GIP level vs vehicle ([4]; CSF)	Plasma GIP level vs vehicle [4]	Plasma GLP-1 level vs vehicle [4]	GFAP level on the lesioned side of brain (striatum) vs vehicle [5]	IL-6 level on the lesioned side of brain (striatum) vs vehicle [5]	Iba1 level on the lesioned side of brain (striatum) vs vehicle [5]	TNF-α level on the lesioned side of brain (striatum) vs vehicle [5]	Body weight in 6-OHDA lesioned rats [6]	other results
O=C([C@@H]1C[C@H](N2CCN(c3ncccn3)CC2)CN1)N1CCC(F)(F)C1 [PF-00734,200, Gosogliptin]	significantly attenuated	significantly reduced	did not alter	significantly increased	elevated	elevated	elevated	reduced levels	reduced levels	reduced levels	reduced levels	did not alter body weight	concentration at 105 min ([1]; brain, rat brain, 105 min after oral 10 mg/kg, read-out: BrFree (brain free concentration)): 195 ± 34.9 nM; concentration at 105 min ([1]; brain, rat brain, 105 min after oral 10 mg/kg, read-out: BrTotal (brain total concentration)): 574 ± 103 nM; Kp at 105 min ([1]; brain/plasma, 105 min after oral 10 mg/kg, read-out: Br/Pl ratio (Total)): 0.62; concentration at 105 min ([1]; plasma, rat plasma, 105 min (predicted Cmax) after oral 10 mg/kg, n = 5 to 6, read-out: PlTotal (plasma total concentration)): 922 ± 206 nM; concentration at 105 min ([1]; plasma, rat plasma, 105 min after oral 10 mg/kg, read-out: PlFree (plasma free concentration)): 830 ± 185 nM; Meth-induced rotational behavior vs vehicle ([2]; delayed treatment, low dose 10 mg/kg daily p.o. from day 7): did not alter rotational behavior; Meth-induced rotation vs vehicle ([2]; i.c.v. 15.4 nmole 10 min prior to 6-OHDA lesioning, evaluated on day 30): no different from similarly vehicle-treated animals; CSF GLP-1 level vs vehicle ([4]; CSF): elevated
N[C@@H](CC(=O)N1CCn2c(nnc2C(F)(F)F)C1)Cc1cc(F)c(F)cc1F [Sitagliptin]	significantly attenuated	small but significant difference	did not alter	significantly increased	elevated	elevated	elevated	reduced levels	reduced levels	reduced levels	reduced levels	did not alter body weight	Substrate for the multi-drug resistance transporter P-glycoprotein [7]: substrate
